Test results taken from the NIST ThermoML archive (doi:10.1016/j.jct.2015.05.011).

Columns and labels:
[1] = refractive index (Na D-line) (dimensionless); xn = mol fraction of the nth substance listed; details: 298.15 K, 100 kPa, Liquid, Standard Abbe refractometry
[2] = excess molar enthalpy (molar enthalpy of mixing); xn = mol fraction of the nth substance listed; details: 100 kPa, Liquid, Flow calorimetry
[3] = xn = mol fraction of the nth substance listed; details: 100 kPa, Liquid; for mass density: Vibrating tube method; for viscosity: Falling or rolling sphere viscometry

CCn1cc[n+](C)c1.N#C[C-](C#N)C#N [1-ethyl-3-methyl-1H-imidazolium tricyanomethanide] + O
[1]
Details | refractive index
x2 = 0 | 1.51227
x2 = 0.1084 | 1.50965
x2 = 0.2059 | 1.50681
x2 = 0.3058 | 1.50438
x2 = 0.4145 | 1.49961
x2 = 0.5128 | 1.49477
x2 = 0.6095 | 1.487
x2 = 0.7065 | 1.4765
x2 = 0.789 | 1.46324
x2 = 0.9015 | 1.42697
x2 = 0.9513 | 1.39433
x2 = 0.9869 | 1.35455

Details | excess molar enthalpy, [2] [kcal/mol] | mass density, [3] [kg/m3] | viscosity, [3] [mPa·s]
288.15 K, x1 = 0.000486 | 0.00123 | 999.748 | –
288.15 K, x1 = 0.000971 | 0.00258 | 1000.38 | –
288.15 K, x1 = 0.001456 | 0.00395 | 1000.99 | –
288.15 K, x1 = 0.001941 | 0.0053 | 1001.57 | –
288.15 K, x1 = 0.002425 | 0.00668 | 1002.13 | –
288.15 K, x1 = 0.002908 | 0.00806 | 1002.68 | –
298.15 K, x1 = 0.000486 | 0.00143 | 997.586 | –
298.15 K, x1 = 0.000971 | 0.00297 | 998.133 | –
298.15 K, x1 = 0.001455 | 0.0045 | 998.652 | –
298.15 K, x1 = 0.00194 | 0.00603 | 999.158 | –
298.15 K, x1 = 0.002423 | 0.00756 | 999.648 | –
298.15 K, x1 = 0.002907 | 0.00907 | 1000.12 | –
298.15 K, x2 = 0 | – | 1081.38 | 14
298.15 K, x2 = 0.1084 | – | 1079.85 | 11.85
298.15 K, x2 = 0.2059 | – | 1078.28 | 10.11
298.15 K, x2 = 0.3058 | – | 1076.34 | 8.35
298.15 K, x2 = 0.4145 | – | 1073.8 | 7.05
298.15 K, x2 = 0.5128 | – | 1070.97 | 5.88
298.15 K, x2 = 0.6095 | – | 1067.4 | 4.89
298.15 K, x2 = 0.7065 | – | 1062.54 | 3.98
298.15 K, x2 = 0.789 | – | 1056.44 | 3.24
298.15 K, x2 = 0.9015 | – | 1040.72 | 2.16
298.15 K, x2 = 0.9513 | – | 1026.4 | 1.58
298.15 K, x2 = 0.9869 | – | 1008.32 | 1.07
308.15 K, x1 = 0.000485 | 0.00166 | 994.509 | –
308.15 K, x1 = 0.00097 | 0.00339 | 994.981 | –
308.15 K, x1 = 0.001455 | 0.00511 | 995.435 | –
308.15 K, x1 = 0.001939 | 0.00682 | 995.873 | –
308.15 K, x1 = 0.002423 | 0.00851 | 996.296 | –
308.15 K, x1 = 0.002906 | 0.0102 | 996.708 | –
318.15 K, x1 = 0.000485 | 0.00184 | 990.626 | –
318.15 K, x1 = 0.00097 | 0.00377 | 991.036 | –
318.15 K, x1 = 0.001455 | 0.00569 | 991.43 | –
318.15 K, x1 = 0.001939 | 0.00759 | 991.809 | –
318.15 K, x1 = 0.002422 | 0.00945 | 992.176 | –
318.15 K, x1 = 0.002905 | 0.0113 | 992.534 | –
